Article PMC10575282, “Elettaria cardamomum (L.) Maton Essential Oil: An Interesting Source of Bioactive Specialized Metabolites as Inhibitors of Acetylcholinesterase and Butyrylcholinesterase” (Plants, 2023)

Experiments:
AChE = settings: cited from earlier work
[1] = target: T1, acetylcholinesterase (AChE) from Electrophorus electricus (Electrophorus electricus, UniProt O42275); assay: biochemical; type: biochemical; settings: for AChE Inhibition (%): fractions/compounds at the concentrations in which they are present in EO, average of three assays; for IC50 AChE: ± standard deviation, n = 3
T1 construct: purchased Merck Life Science S.r.l; (Milan, Italy)
Method: (§1) The protocol used in this study was that of Rhee et al., with slight modifications. The following buffers were used: buffer A (50 mM Tris-HCl pH 8), buffer B (50 mM Tris-HCl pH 8, with the addition of 0.1% of bovine albumin and 0.1% of TWEEN20), and buffer C (50 mM Tris-HCl pH 8, with the addition of 0.1 M of NaCl and 0.02 M of MgCl2 6H2O). The enzyme solution of 0.22 U/mL was prepared in buffer B. The acetylthiocholine iodide (ATCI) solution of 1.5 mM was prepared in Millipore water, while the butyrylthiocholine iodide (BTCI) solution was prepared in buffer A. Ellman’s reagent solution at 3 mM was prepared in buffer C.
(§2) The reaction mixture was incubated at 30 °C for 6 min. The absorbance values were measured at 405 nm after incubation. […] The control and sample blank solutions were prepared by replacing 150 µL of the enzyme solution with 150 µL of buffer A.
(§3) The percentage of the AChE or BChE inhibition was measured according to the equation below:% Inhibition = ΔA (Control) − ΔA (Sample)/ΔA (Control) × 100 ΔA (Control) = A412 (Control) − A412 (Control Blank) ΔA(Sample) = A412 (Sample) − A412 (Sample Blank)
(§4) The concentration–response curve was determined for each inhibitor by plotting the inhibitory activity against AChE or BChE as a function of the inhibitor concentration in the reaction mixture.
(§5) The Microsoft Excel programme was used for the Anova test. For the IC50 calculation, an online programme from AAT Bioquest was used (https://www.aatbio.com/tools/ic50-calculator, accessed on 10 May 2023).

[2] = target: T2, butyrylcholinesterase (BChE) from equine serum (Equus caballus, UniProt P81908); assay: biochemical; type: biochemical; settings: for BChE Inhibition (%): fractions/compounds at the concentrations in which they are present in EO, average of three assays
T2 construct: butyrylcholinesterase (BChE) from equine serum; purchased Merck Life Science S.r.l; (Milan, Italy); host or cells: equine serum
Method: as §1, §2, §3, §4, §5

BChE = test system: BChE; parameters: method as in doi:10.1016/j.jff.2020.103892; settings: cited from earlier work

T1 sequence (O42275 24-633): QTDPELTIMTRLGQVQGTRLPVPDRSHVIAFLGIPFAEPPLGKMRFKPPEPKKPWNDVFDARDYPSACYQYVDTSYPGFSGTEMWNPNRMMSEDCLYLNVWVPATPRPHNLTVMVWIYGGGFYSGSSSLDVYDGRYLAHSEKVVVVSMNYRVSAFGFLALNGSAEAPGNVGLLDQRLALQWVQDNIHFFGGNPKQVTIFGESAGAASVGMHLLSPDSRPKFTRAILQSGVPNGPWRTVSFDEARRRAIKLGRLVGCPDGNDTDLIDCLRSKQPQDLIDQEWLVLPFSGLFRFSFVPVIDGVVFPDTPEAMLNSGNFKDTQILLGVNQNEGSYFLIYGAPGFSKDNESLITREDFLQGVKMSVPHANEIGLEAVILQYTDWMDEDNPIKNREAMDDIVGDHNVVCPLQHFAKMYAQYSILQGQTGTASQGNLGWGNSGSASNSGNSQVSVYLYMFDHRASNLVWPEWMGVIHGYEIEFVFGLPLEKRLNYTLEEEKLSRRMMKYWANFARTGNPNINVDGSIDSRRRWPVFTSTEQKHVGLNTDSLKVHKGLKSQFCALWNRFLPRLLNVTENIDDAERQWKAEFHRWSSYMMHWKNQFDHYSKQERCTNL
T2 sequence (P81908 whole entry): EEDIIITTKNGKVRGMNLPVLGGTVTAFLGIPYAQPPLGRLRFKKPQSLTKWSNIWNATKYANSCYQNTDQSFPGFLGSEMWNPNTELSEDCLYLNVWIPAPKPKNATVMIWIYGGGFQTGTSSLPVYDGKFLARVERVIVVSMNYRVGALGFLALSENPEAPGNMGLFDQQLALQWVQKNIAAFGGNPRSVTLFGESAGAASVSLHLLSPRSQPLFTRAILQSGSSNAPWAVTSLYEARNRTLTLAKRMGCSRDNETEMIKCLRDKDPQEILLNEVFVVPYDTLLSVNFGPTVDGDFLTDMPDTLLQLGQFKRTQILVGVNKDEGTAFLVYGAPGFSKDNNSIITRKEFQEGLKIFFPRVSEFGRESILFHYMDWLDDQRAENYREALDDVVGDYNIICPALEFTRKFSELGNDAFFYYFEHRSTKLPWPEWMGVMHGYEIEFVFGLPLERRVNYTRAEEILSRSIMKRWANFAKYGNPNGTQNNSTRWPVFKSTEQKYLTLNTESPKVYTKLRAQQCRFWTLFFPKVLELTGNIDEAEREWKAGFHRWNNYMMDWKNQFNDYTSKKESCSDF

With `CC12CCC(CC1)C(C)(C)O2` [1,8-cineole] as the compound, how does the AChE inhibition (AChE; mechanism still unclear) read?
Its AChE inhibition is “known to actively inhibit AChE”.

What about the IC50 [1] of the same compound?
Its IC50 is 91.4 µM.

What about the “AChE Inhibition (%)” value [1] of the same compound?
Its value is 55.4%.

What about the “IC50 BChE” value ([2]; ± standard deviation, n = 3) of the same compound?
The value was “inactive inhibitor of BChE”.

What about the “IC50 BChE” value ([2]; ± standard deviation, n = 3, listed as 1,8-Cineole) of the same compound?
Its value is “not active”.

Which “BChE Inhibition (%)” value [2] does the source give for `C=CC(C)(O)CCC=C(C)C` (stereo not shown) [Linalool, linalool] here?
The value was 5.0%.

What about the “BChE Inhibition (%)” value ([2]; listed as linalool) of the same compound?
The value was “active”.

For `C=CC(C)(CCC=C(C)C)OC(C)=O` (stereo not shown) [Linalyl acetate, linalyl acetate], which “BChE Inhibition (%)” value [2] is on record?
Its value is 10.3%.

And the “BChE Inhibition (%)” value ([2]; listed as linalyl acetate)?
The value was “active”.

Which “Type of inhibition of AChE” value (AChE) does the source give for `CC(=O)OC(C)(C)C1CC=C(C)CC1` (stereo not drawn) [α-terpinyl acetate] here?
The value was “competitive inhibition”.

What about the “AChE Inhibition (%)” value [1] of the same compound?
Its value is 17.0%.

What about the “IC50 AChE” value [1] of the same compound?
Its value is 50% inhibition was never achieved.

What about the “IC50 AChE” value ([1]; listed as α-Terpinyl acetate) of the same compound?
The value was “Activity lower than 50%”.

What about the “BChE Inhibition (%)” value [2] of the same compound?
Its value is 39.0%.

And the IC50 ([2]; ± standard deviation, n = 3)?
Its IC50 is 112 µM.

What about the “Type of inhibition of BChE” value (BChE) of the same compound?
Its value is “mixed inhibition”.
